From patent publication US20040192771A1, “Ether compounds and compositions for cholesterol management and related uses” (priority 2001, published 2004)
Read-outs that look alike come from different tables or passages of the source.

What was measured:
[1] = tested on: obese female Zucker rats; experiment: Oral daily treatment of obese female Zucker rats for fourteen days; serum lipids and glycemic control indicators; type: in vivo; conditions: Rattus norvegicus, percent change from study prebleed; for change in vivo at 70 mg/kg/day: 70 mg/kg/day oral; for change in vivo at 90 mg/kg/day: 90 mg/kg/day oral; for change in vivo at 97 mg/kg/day: 97 mg/kg/day oral; for change in vivo at 100 mg/kg/day: 100 mg/kg/day oral
Protocol: In a number of different experiments, illustrative compounds of the invention are administered daily at a dose of up to 100 mg/kg to chow fed obese female Zucker rats for fourteen days in the morning by oral gavage in 1.5% carboxymethylcellulose/0.2% Tween 20 or 20% ethanol/80% polyethylene glycol (dosing vehicles). Animals are weighed daily. Animals are allowed free access to rodent chow and water throughout the study except on days of blood sampling where food is restricted for six hours prior to blood sampling. Blood glucose is determined after the 6 hour fast in the afternoon without anesthesia from a tail vein. Serum is also prepared from pretreatment blood samples subsequently obtained from the orbital venous plexus (with O2/CO2 anesthesia) and following the fourteenth dose at sacrifice from the heart following O2/CO2 anesthesia. Serums are assayed for lipoprotein cholesterol profiles, triglycerides, total cholesterol, Non HDL cholesterol, HDL cholesterol, the ratio of HDL cholesterol to that of Non HDL cholesterol, insulin, non esterified fatty acids, and beta hydroxy butyric acid. The percent body weight gain and the ratio of liver to body weight is also determined. These are shown as absolute values or as a percent change of the pretreatment values in Table C. [drawing 479] [drawing 480]

[2] = tested on: primary rat hepatocytes; experiment: Inhibition of lipid synthesis ([1-14C]-acetate incorporation) in primary cultures of rat hepatocytes; type: cell-based; conditions: Hepatocyte, total lipid synthesis, 4 hours incubation
Protocol: Compounds were tested for inhibition of lipid synthesis in primary cultures of rat hepatocytes. Male Sprague-Dawley rats were anesthetized with intraperitoneal injection of sodium pentobarbital (80 mg/kg). Rat hepatocytes were isolated essentially as described by the method of Seglen (Seglen, P. O. Hepatocyte suspensions and cultures as tools in experimental carcinogenesis. J. Toxicol. Environ. Health 1979, 5, 551-560). Hepatocytes were suspended in Dulbecco's Modified Eagles Medium containing 25 mM D-glucose, 14 mM HEPES, 5 mM L-glutamine, 5 mM leucine, 5 mM alanine, 10 mM lactate, 1 mM pyruvate, 0.2% bovine serum albumin, 17.4 mM non-essential amino acids, 20% fetal bovine serum, 100 nM insulin and 20 μg/mL gentamycin) and plated at a density of 1.5×10^5 cells/cm^2 on collagen-coated 96-well plates. Four hours after plating, media was replaced with the same media without serum. Cells were grown overnight to allow formation of monolayer cultures. Lipid synthesis incubation conditions were initially assessed to ensure the linearity of [1-^14C]-acetate incorporation into hepatocyte lipids for up to 4 hours. Hepatocyte lipid synthesis inhibitory activity was assessed during incubations in the presence of 0.25 μCi [1-^14C]-acetate/well (final radiospecific activity in assay is 1 Ci/mol) and 0, 1, 3, 10, 30, 100 or 300 μM of compounds for 4 hours. At the end of the 4-hour incubation period, medium was discarded and cells were washed twice with ice-cold phosphate buffered saline and stored frozen prior to analysis. To determine total lipid synthesis, 170 μl of MicroScint-E® and 50 μl water was added to each well to extract and partition the lipid soluble products to the upper organic phase containing the scintillant. Lipid radioactivity was assessed by scintillation spectroscopy in a Packard TopCount NXT.

[3] = tested on: obese female Zucker rats; experiment: Oral daily treatment of obese female Zucker rats for fourteen days; serum lipids and glycemic control indicators; type: in vivo; conditions: Rattus norvegicus, 168 h; percent change from study prebleed; week 1; 97 mg/kg/day oral; read-out: HDL-C
[4] = 168 h, week 1, read-out: Glucose
[5] = 168 h, week 1, read-out: Insulin
[6] = 168 h, week 1, read-out: Non-HDL-C
[7] = 336 h, week 2, read-out: Glucose
[8] = 336 h, week 2, read-out: Insulin
[9] = 336 h, week 2, read-out: Non-HDL-C

Work on `CC(C)(Cc1cccc(Oc2cccc(CC(C)(C)C(=O)O)c2)c1)C(=O)O` [Compound 135, 3-{3-[3-(2-Carboxy-2-methylpropyl)-phenoxy]-phenyl}-2,2-dimethylpropionic acid] yielded a change in vivo at 70 mg/kg/day [1, 4] of -13%, a change in vivo at 70 mg/kg/day ([1]; 168 h, week 1, read-out: HDL-C) of 63% and a change in vivo at 70 mg/kg/day [1, 5] of -43%. It also gave a change in vivo at 70 mg/kg/day [1, 6] of -53%, a change in vivo at 70 mg/kg/day ([1]; 168 h, week 1, read-out: TC) of 3% and a change in vivo at 70 mg/kg/day ([1]; 168 h, week 1, read-out: TG) of -45%. It also gave a change in vivo at 70 mg/kg/day [1, 7] of -16%, a change in vivo at 70 mg/kg/day ([1]; 336 h, week 2, read-out: HDL-C) of 31% and a change in vivo at 70 mg/kg/day [1, 8] of 1%. For the same compound, the change in vivo at 70 mg/kg/day [1, 9] was -41%, the change in vivo at 70 mg/kg/day ([1]; 336 h, week 2, read-out: TC) was -7% and the change in vivo at 70 mg/kg/day ([1]; 336 h, week 2, read-out: TG) was -52%. It also gave an IC50 [2] of 52 µM.
`CC(C)(CO)Cc1cccc(Oc2cccc(CC(C)(C)CO)c2)c1` [Compound 136, 3-{3-[3-(3-Hydroxy-2,2-dimethylpropyl)-phenoxy]-phenyl}-2,2-dimethylpropan-1-ol] was tested, and the change in vivo at 90 mg/kg/day [1, 4] was -20%, the change in vivo at 90 mg/kg/day ([1]; 168 h, week 1, read-out: HDL-C) was 22% and the change in vivo at 90 mg/kg/day [1, 5] was -57%. The change in vivo at 90 mg/kg/day [1, 6] was -12%, the change in vivo at 90 mg/kg/day ([1]; 168 h, week 1, read-out: TC) was 1% and the change in vivo at 90 mg/kg/day ([1]; 168 h, week 1, read-out: TG) was 13%. The change in vivo at 90 mg/kg/day [1, 7] was -3%, the change in vivo at 90 mg/kg/day ([1]; 336 h, week 2, read-out: HDL-C) was -4% and the change in vivo at 90 mg/kg/day [1, 8] was -45%. For the same compound, the change in vivo at 90 mg/kg/day [1, 9] was 23%, the change in vivo at 90 mg/kg/day ([1]; 336 h, week 2, read-out: TC) was 9% and the change in vivo at 90 mg/kg/day ([1]; 336 h, week 2, read-out: TG) was 18%. It also gave an IC50 [2] of 98 µM.
In the case of `CC(C)(CO)CCCC1CCC(CCCC(C)(C)CO)O1` (centres unmarked) [Compound 138, 5-[5-(5-Hydroxy-4,4-dimethylpentyl)-tetrahydrofuran-2-yl]-2,2-dimethylpentan-1-ol], the change in vivo at 97 mg/kg/day [1, 4] is reported as 35%, the change in vivo at 97 mg/kg/day [1, 5] is reported as 43% and the change in vivo at 97 mg/kg/day [1, 6] is reported as 11%. The change in vivo at 97 mg/kg/day ([1]; 168 h, week 1, read-out: TC) was 128%, the change in vivo at 97 mg/kg/day ([1]; 168 h, week 1, read-out: TG) was -49% and the change in vivo at 97 mg/kg/day [1, 7] was 10%. The change in vivo at 97 mg/kg/day ([1]; 336 h, week 2, read-out: HDL-C) was 140%, the change in vivo at 97 mg/kg/day [1, 8] was 69% and the change in vivo at 97 mg/kg/day [1, 9] was 31%. It also gave a change in vivo at 97 mg/kg/day ([1]; 336 h, week 2, read-out: TC) of 74%, a change in vivo at 97 mg/kg/day ([1]; 336 h, week 2, read-out: TG) of -13% and an IC50 [2] of 9 µM. The change in vivo at 97 mg/kg/day [3] was 287%.
Work on `CC(C)(CO)CCCC1CCCC(CCCC(C)(C)CO)O1` (centres unmarked) [Compound 141, 5-[6-(5-Hydroxy-4,4-dimethylpentyl)-tetrahydropyran-2-yl]-2,2-dimethylpentan-1-ol] yielded a change in vivo at 100 mg/kg/day [1, 4] of -14%, a change in vivo at 100 mg/kg/day ([1]; 168 h, week 1, read-out: HDL-C) of 75% and a change in vivo at 100 mg/kg/day [1, 5] of -2%. It also gave a change in vivo at 100 mg/kg/day [1, 6] of -70%, a change in vivo at 100 mg/kg/day ([1]; 168 h, week 1, read-out: TC) of 28% and a change in vivo at 100 mg/kg/day ([1]; 168 h, week 1, read-out: TG) of -74%. The change in vivo at 100 mg/kg/day [1, 7] was -9%, the change in vivo at 100 mg/kg/day ([1]; 336 h, week 2, read-out: HDL-C) was 127% and the change in vivo at 100 mg/kg/day [1, 8] was 10%. For the same compound, the change in vivo at 100 mg/kg/day [1, 9] was -31%, the change in vivo at 100 mg/kg/day ([1]; 336 h, week 2, read-out: TC) was 70% and the change in vivo at 100 mg/kg/day ([1]; 336 h, week 2, read-out: TG) was -47%. For the same compound, the IC50 [2] was 39 µM.
In the case of `CC(C)(CCCCOCCCCC(C)(C)CCC(=O)O)CCC(=O)O` [Compound 145, 4,4,14,14-Tetramethyl-9-oxaheptadecane-1,17-dioic acid], the change in vivo at 100 mg/kg/day [1, 4] is reported as -1%, the change in vivo at 100 mg/kg/day ([1]; 168 h, week 1, read-out: HDL-C) is reported as 13% and the change in vivo at 100 mg/kg/day [1, 5] is reported as -34%. The change in vivo at 100 mg/kg/day [1, 6] was -50%, the change in vivo at 100 mg/kg/day ([1]; 168 h, week 1, read-out: TC) was -3% and the change in vivo at 100 mg/kg/day ([1]; 168 h, week 1, read-out: TG) was -80%. It also gave a change in vivo at 100 mg/kg/day [1, 7] of 16%, a change in vivo at 100 mg/kg/day ([1]; 336 h, week 2, read-out: HDL-C) of 39% and a change in vivo at 100 mg/kg/day [1, 8] of -45%. The change in vivo at 100 mg/kg/day [1, 9] was -30%, the change in vivo at 100 mg/kg/day ([1]; 336 h, week 2, read-out: TC) was 21% and the change in vivo at 100 mg/kg/day ([1]; 336 h, week 2, read-out: TG) was -73%. It also gave an IC50 [2] of 22 µM.
